Measurements reported in PubChem BioAssay (NCI).
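Grown in 96-well plates, cells were treated for 48 hours with each compound at five concentrations. Insufficient inhibition: endpoint recorded as highest concentration tested. GI50 = concentration required for 50% inhibition of growth. The concentration for full growth arrest is given as TGI.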

What was measured:
Experiment in all cases: NCI tumour cell line growth inhibition, 48 h
U251 CNS = system: U251 CNS
NCI-H226 lung = system: NCI-H226 lung
M14 melanoma = system: M14 melanoma
SK-OV-3 ovarian = system: SK-OV-3 ovarian
MALME-3M melanoma = system: MALME-3M melanoma
BT-549 breast = system: BT-549 breast
K-562 leukemia = system: K-562 leukemia
DU-145 prostate = system: DU-145 prostate
HCT-15 colon = system: HCT-15 colon
CCRF-CEM leukemia = system: CCRF-CEM leukemia

SMILES	TGI (U251 CNS)	TGI (NCI-H226 lung)	TGI (M14 melanoma)	TGI (SK-OV-3 ovarian)	TGI (MALME-3M melanoma)	TGI (BT-549 breast)	TGI (K-562 leukemia)	TGI (DU-145 prostate)	TGI (HCT-15 colon)	TGI (CCRF-CEM leukemia)	GI50 (U251 CNS)	GI50 (NCI-H226 lung)	GI50 (M14 melanoma)	GI50 (SK-OV-3 ovarian)	GI50 (MALME-3M melanoma)	GI50 (K-562 leukemia)	GI50 (HCT-15 colon)	GI50 (BT-549 breast)	GI50 (DU-145 prostate)
O=C1c2cccnc2C(=O)C2C3C=CC(C3)C12 (stereo not given)	16.7 µM	32 µM	28 µM	43.9 µM	29.5 µM	24 µM	34.9 µM	19.8 µM	34.8 µM										
CCOC(=O)c1c(-c2ccccc2)oc(-c2ccccc2)c1C(=O)OCC	> 100 µM	> 100 µM	> 100 µM	> 100 µM	> 100 µM		> 100 µM			> 100 µM									
CC(=O)N1c2ccccc2C2=CC3C4C(=O)N(c5ccccc5)C(=O)C4C21C1C(=O)N(c2ccccc2)C(=O)C31 (stereo not given)	> 100 µM			> 100 µM	> 100 µM		> 100 µM		> 100 µM	> 100 µM									
CC[O-].CC[O-].O=C([CH-]C(=O)c1cccnc1)c1ccccc1.O=C([CH-]C(=O)c1cccnc1)c1ccccc1.[Ti+4]	> 100 µM	> 100 µM	> 100 µM	> 100 µM	> 100 µM		> 100 µM		> 100 µM		27.2 µM	68.1 µM	60.4 µM	91.8 µM	> 100 µM	36.2 µM	18.3 µM		
COC(c1cccc(C(O)(C(F)(F)F)C(F)(F)F)c1)(C(F)(F)F)C(F)(F)F	33.9 µM	37.8 µM	34 µM	34.4 µM	35.3 µM				53.9 µM										
O=C(Nc1ccccc1)c1nn(-c2cc(S(=O)(=O)O)c([N+](=O)[O-])cc2Cl)[n+](-c2cc(S(=O)(=O)[O-])c([N+](=O)[O-])cc2Cl)n1	> 100 µM	> 100 µM	> 100 µM	> 100 µM	> 100 µM		> 100 µM	> 100 µM	> 100 µM	> 100 µM									
O=C(O)C1=CCCc2ccc3ccccc3c21	> 100 µM	> 100 µM	> 100 µM	> 100 µM	> 100 µM		> 100 µM		> 100 µM										
O=C(CCC(=O)Nc1cccc(Cl)c1)CC(=O)c1ccc(F)cc1		> 100 µM	> 100 µM	> 100 µM	> 100 µM		> 100 µM		> 100 µM										
Nc1nc(N)c(Cn2ccnc2)c(=O)[nH]1	> 100 µM	> 100 µM	> 100 µM	> 100 µM	> 100 µM	> 100 µM	> 100 µM	> 100 µM	> 100 µM										
Cn1c2c(c3ccccc31)CCN(CCN1CCN(c3ccccc3)CC1)C2=O	> 100 µM		> 100 µM	> 100 µM			> 100 µM		> 100 µM	> 100 µM									
CCN(CC)CCCn1cnc2ncccc2c1=O	> 100 µM	> 100 µM	> 100 µM	> 100 µM	> 100 µM		> 100 µM			> 100 µM									
C/C(=N\NC(N)=S)c1cc(C)c(C)cc1C	> 100 µM	> 100 µM	> 100 µM	> 100 µM	92 µM		> 100 µM		> 100 µM	> 100 µM									
C#CCN(Cc1nc2cc(C(F)(F)F)ccc2nc1-c1ccccc1)c1ccc(OC(F)(F)F)cc1	> 100 µM		> 100 µM	> 100 µM	> 100 µM	> 100 µM	> 100 µM	> 100 µM	> 100 µM		48.8 µM		50.3 µM	> 100 µM	> 100 µM	33.9 µM	> 100 µM	44.9 µM	36.5 µM
